Experimental findings from patent US7402696B2, “Benzene compounds” (Ajinomoto Co., Inc., priority 2004, dated 2008) are described below.

Read-outs that look alike come from different tables or passages of the source.

For this test, the target named is T1, ACC (acetyl CoA carboxylase) purified from liver of male SD rat (Rattus norvegicus, UniProt P11497).
T1 construct: applied to a monomeric avidin sepharose column, and washed with buffer B. The ACC was eluted with buffer B containing 2 mM d-biotin; from tissue; host or cells: liver of male SD rat
The test is described as follows: Measurement of ACC inhibition activity ([14C]-NaHCO3 incorporation). It is filed as biochemical. The settings on record: read-out: ACC Inhibition (%). How it is done: A male SD rat was deprived of food for two days and then fed a high-sucrose diet (component) for two days. While anesthetized with ether, the descending vena cava was cut upon, the animal was bled, and the liver was rapidly recovered. In an ice-cooled buffer solution A (225 mM mannitol, 75 mM sucrose, 10 mM Tris-HCl (pH 7.5), 0.05 mM EDTA, 5 mM potassium citrate, 2.5 mM MgCl2, 10 mg/L pepstatin A, 10 mg/L leupeptin, 1 mM PMSF), the liver was homogenized with a polytone homogenizer. A quantity of buffer A nine times the weight of the liver was added, the mixture was centrifuged for 10 minutes at 1,000 g, the supernatant was recovered, and the supernatant was centrifuged for another 10 minutes at 17,000 g.
Ammonium sulfate was added to 35 percent saturation to the obtained supernatant. The mixture was stirred for 45 minutes and then centrifuged for 10 minutes at 17,000 g. Buffer solution B (100 mM Tris-HCl (pH 7.5), 500 mM NaCl, 1 mM EDTA, 0.1 mM DTT, 10 percent glycerol, 10 mg/L pepstatin A, 10 mg/L leupeptin, 0.5 mM PMSF) was added to the obtained precipitate and dissolved. The solution was then centrifuged for 20 minutes at 40,000 g. The supernatant was dialyzed overnight against buffer C (100 mM Tris-HCl (pH 7.5), 500 mM NaCl, 1 mM EDTA, 0.1 mM DTT, 5 percent glycerol).
The dialyzed supernatant was passed through a […], applied to a monomeric avidin sepharose column, and washed with buffer B. The ACC was eluted with buffer B containing 2 mM d-biotin.
(2 Measurement of ACC Inhibition Activity)
The compounds synthesized in the above-described embodiments were dissolved in DMSO and charged to glass vials. 250 μL of ACC-containing reaction solution (40 mM Tris-HCl (pH 7.5), 40 mM MgCl2, 40 mM sodium citrate, and 2 mM DTT) was added. The mixture was heated for 30 minutes at 37° C. in a thermostatic chamber and then cooled with ice. To reaction solution 1 was added 250 μL of reaction solution 2 containing [14C]—NaHCO3 (40 mM Tris-HCl (pH 7.5), 2 mM DTT, 8 mM ATP, 0.5 mM acetyl CoA) and the mixture was heated for 10 minutes at 37° C. 100 μL of 1N HCl was added to stop the reaction. Water in the reaction solution was removed with a centrifugal evaporator, a scintillator was added, the solid component was dissolved, and the 14C radioactivity was measured with a liquid scintillation counter. The ACC inhibition activity of each compound was calculated from the following equation and converted to the ACC inhibition activity rate (%) at 1 μM.
ACC inhibition rate (%)=(1−(a−c)/(b−c))×100 a. Radioactivity when test drug added b: Radioactivity when test drug not added c: Blank* *Reaction solution 1 to which 100 μL of 1N HCl was added before mixing reaction solution 1 and reaction solution 2

The mark [1] stands for this setting: ACC inhibition activity rate at 1 μM, Table 4-IV, Mode 4 benzenediamine compounds (numbers = x-IV).
Where [2] appears, read: ACC inhibition activity rate at 1 μM, Table 4-A, further compounds of Modes 2 and 3.
Setting [3] is: ACC inhibition activity rate at 1 μM, Table 2-III, Mode 3 acetylene/oxadiazole/thiazole compounds (numbers = x-III).
The mark [4] stands for this setting: ACC inhibition activity rate at 1 μM, Table 3-I, Mode 1 quinoline compounds (numbers = x-I).

Take `CC(C)CCN(C)c1ccc(C(=O)NC(CC(=O)NS(=O)(=O)c2ccccc2)C2CCCCC2)cc1NCc1nccs1` (centres unmarked) [compound 92]: under setting [1], the inhibition (usually the change of the read-out against control, counted positive when it falls) at 1 µM came to 49%.
In the case of `Cn1cnc(S(=O)(=O)NC(=O)c2cccc(-c3nc(-c4ccc(-c5csc(-c6ccccc6)n5)cc4)no3)c2)c1` [Compound 139-III], under setting [2], the inhibition at 1 µM was 96%.
With `CC(C)CCN(C)c1ccc(-c2noc(-c3cccc(C(=O)NS(=O)(=O)c4ccccc4)c3)n2)cc1NC(=O)c1cccc(C(F)(F)F)c1` [compound 39], the inhibition at 1 µM under setting [1] was 99%.
`O=S(=O)(Nc1ccc(-c2csc(-c3ccc(C(F)(F)F)cc3)n2)cc1)c1cccc(S(=O)(=O)Nc2ccc(-c3csc(-c4ccc(C(F)(F)F)cc4)n3)cc2)c1` [compound 55]: the inhibition at 1 µM under setting [3] amounted to 73%.
As to `CCCCCC(=O)NS(=O)(=O)c1ccccc1NC(=O)c1ccc(Nc2ccc(C(F)(F)F)cc2)c(NC(=O)C2CCCCC2)c1` [compound 31], the inhibition at 1 µM under setting [1] was 72%.
On the same count and under the same terms, the value for `CC(C)CCN(C)c1ccc(-c2noc(-c3cccc(C(=O)NS(=O)(=O)c4ccccc4)c3)n2)cc1NCc1ccc2ccccc2c1` [compound 102] was 100%.
For `CCCCCC(=O)NS(=O)(=O)c1ccccc1NC(=O)c1ccc(Nc2ccc(C(F)(F)F)cc2)c(NC(=O)c2ccc(C(F)(F)F)cc2)c1` [compound 28], the inhibition at 1 µM under setting [1] was 92%.
With `O=C(O)C1C=CC=CC1c1nc(-c2ccc(-c3csc(-c4ccc(C(F)(F)F)cc4)n3)cc2)no1` (centres unmarked) [compound 49], the inhibition at 1 µM under setting [3] was found to be 62%.
With `COC(=O)c1cccc(S(=O)(=O)NC(=O)c2cccc(-c3nc(-c4ccc(N(C)CCC(C)C)c(NCc5ccc(OCCO)cc5)c4)no3)c2)c1` [Compound 133-IV], the inhibition at 1 µM under setting [1] turned out to be 99%.
For the compound `CC(C)(C)c1ccc(C(=O)NS(=O)(=O)c2ccccc2NC(=O)c2ccc3nc(-c4cc(C(F)(F)F)cc(C(F)(F)F)c4)ccc3c2)cc1` [compound 83], the inhibition at 1 µM under setting [4] was determined as 98%.
For the compound `O=C(O)c1ccccc1C(=O)Nc1ccc(-c2csc(-c3cc(C(F)(F)F)ccc3F)n2)cc1` [compound 99], the inhibition at 1 µM under setting [3] was 52%.
Turning to `CCCCCC(=O)NS(=O)(=O)c1ccccc1NC(=O)c1ccc(Nc2c(F)c(F)c(C(F)(F)F)c(F)c2F)c([N+](=O)[O-])c1` [compound 8], the inhibition at 1 µM under setting [1] came out at 50%.
Consider `CCCCCC(=O)NS(=O)(=O)c1ccccc1NC(=O)c1ccc2nc(-c3cc(C(F)(F)F)cc(C(F)(F)F)c3)ccc2c1` [compound 7], for which, under setting [4], the inhibition at 1 µM was found to be 72%.
Consider `CCOP(=O)(/C=C/c1ccc(CNc2cc(-c3noc(-c4cccc(C(=O)NS(=O)(=O)c5ccccc5C)c4)n3)ccc2N(C)CCC(C)C)cc1)OCC` [Compound 140-IV], for which the inhibition at 1 µM was found to be 100%.
Turning to `CC(C)CCN(C)c1ccc(-c2nc(-c3cccc(C(=O)NS(=O)(=O)c4ccccc4)c3)no2)cc1[N+](=O)[O-]` [compound 51], under setting [1], the inhibition at 1 µM amounted to 76%.
As to `CC(C)CCN(C)c1ccc(-c2noc(-c3cccc(C(=O)NS(=O)(=O)c4ccccc4)c3)n2)cc1N(CCCc1ccccc1)CCCc1ccccc1` [compound 56], under setting [1], the inhibition at 1 µM is 100%.
With `O=C(NS(=O)(=O)c1cccc(-c2nc(-c3ccc(-c4csc(-c5ccccc5)n4)cc3)no2)c1)c1ccc(-n2ccnc2)cc1` [Compound 138-III], under setting [2], the inhibition at 1 µM was 100%.
For the compound `CC(C)CCN(C)c1ccc(-c2noc(-c3cccc(C(=O)NS(=O)(=O)c4ccccc4)c3)n2)cc1NCc1ccccc1` [compound 45], the inhibition at 1 µM under setting [1] was found to be 100%.
Turning to `O=C(NS(=O)(=O)c1cccc(-c2nc(-c3ccc(-c4csc(-c5ccccc5)n4)cc3)no2)c1)c1cccnc1` [Compound 145-III], the inhibition at 1 µM under setting [2] stood at 84%.
As to `CCCCS(=O)(=O)NC(=O)[C@@H]1C[C@H]2C[C@H](C2(C)C)[C@@]1(C)NC(=O)c1ccc2nc(-c3cc(C(F)(F)F)cc(C(F)(F)F)c3)ccc2c1` [compound 59], the inhibition at 1 µM under setting [4] turned out to be 74%.
Turning to `CCCCCC(=O)NS(=O)(=O)c1ccccc1NC(=O)c1ccc(Nc2ccc(C(F)(F)F)cc2)c(NC(=O)c2cccs2)c1` [compound 34], the inhibition at 1 µM under setting [1] was 67%.
On the same count and under the same terms, the value for `CC(C)CCN(C)c1ccc(-c2noc(-c3cccc(C(=O)NS(=O)(=O)c4ccccc4)c3)n2)cc1NCc1cc(O)cc(O)c1` [compound 114] was 77%.
On the same count and under the same terms, the value for `CC(C)CCN(C)c1ccc(C(=O)NC(CC(=O)NS(=O)(=O)c2ccccc2)C2CCCCC2)cc1NCc1ccco1` (centres unmarked) [compound 90] was 62%; that for `Cc1ccccc1S(=O)(=O)NC(=O)CC(NC(=O)c1ccc(N(C)CCC(C)C)c(NCCc2ccccc2)c1)C1CCCCC1` (centres unmarked) [compound 125] was 98%.
Still for that read-out and setting: with `CC(C)CCN(C)c1ccc(-c2noc(-c3cccc(C(=O)NS(=O)(=O)c4cccc(C(=O)O)c4)c3)n2)cc1N(C)Cc1ccc(OCCO)cc1` [Compound 139-IV] the figure was 100%.
For `COc1cccc(OC)c1C(=O)NS(=O)(=O)c1cccc(-c2nc(-c3ccc(-c4csc(-c5ccccc5)n4)cc3)no2)c1` [Compound 146-III], under setting [2], the inhibition at 1 µM was 79%.
Turning to `CCCCCC(=O)NS(=O)(=O)c1ccccc1NC(=O)c1ccc2c(c1)nc(-c1cc(C(F)(F)F)cc(C(F)(F)F)c1)n2CCC(C)C` [compound 1], under “ACC inhibition activity rate at 1 μM, Table 3-II, Mode 2 benzimidazole compounds (numbers = x-II)”, the inhibition at 1 µM is 50%.
For the compound `O=C(O)c1ccccc1-c1csc(-c2ccc(C#Cc3cccc(C(F)(F)F)c3)cc2)n1` [compound 35], under setting [3], the inhibition at 1 µM amounted to 50%.
Take `CC(C)CCN(C)c1ccc(-c2noc(-c3cccc(C(=O)NS(=O)(=O)c4ccccc4)c3)n2)cc1NCc1ccc(O)cc1` [compound 95]: the inhibition at 1 µM under setting [1] came to 100%.
On the same count and under the same terms, the value for `CCCCCC(=O)NS(=O)(=O)c1ccccc1NC(=O)c1ccc(Nc2ccc(C(F)(F)F)cc2)c(NC(=O)c2cc(C(F)(F)F)cc(C(F)(F)F)c2)c1` [compound 16] was 86%; that for `Cc1ccccc1S(=O)(=O)NC(=O)CC(NC(=O)c1ccc(N(C)CCC(C)C)c(N(C)CC2CCCCC2)c1)C1CCCCC1` (centres unmarked) [compound 119] was 94%.
As for `CC(C)c1ccc(S(=O)(=O)NC(=O)C[C@H](NC(=O)c2ccc3nc(-c4cc(C(F)(F)F)cc(C(F)(F)F)c4)ccc3c2)C2CCCCC2)cc1` [compound 50], the inhibition at 1 µM under setting [4] is 87%.
In the case of `Cc1ccccc1S(=O)(=O)NC(=O)c1cccc(-c2nc(-c3ccc(N(C)CCC(C)C)c(NCc4ccccc4[N+](=O)[O-])c3)no2)c1` [compound 129], the inhibition at 1 µM under setting [1] is 100%.
`CC(C)c1ccc(S(=O)(=O)NC(=O)c2ccc(-c3csc(-c4ccc(C#Cc5cccc(C(F)(F)F)c5)cc4)n3)cc2)cc1` [compound 105]: under setting [3], the inhibition at 1 µM came out at 99%.
As for `O=C(NS(=O)(=O)c1cccc(-c2nc(-c3ccc(-c4csc(-c5ccccc5)n4)cc3)no2)c1)c1cccs1` [Compound 143-III], the inhibition at 1 µM under setting [2] was determined as 83%.
As for `O=C1C(c2ccccc2)=C(c2ccccc2)C(=O)N1c1cccc(C#Cc2cccc(C(F)(F)F)c2)c1` [compound 74], the inhibition at 1 µM under setting [3] is 66%.
Same read-out and setting: with `O=C(O)CCC(NC(=O)OCc1ccccc1)C(=O)Nc1ccc(-c2csc(-c3ccccc3)n2)cc1` (centres unmarked) [compound 104] the figure was 66%; with `O=C(O)c1ccccc1S(=O)(=O)Nc1ccc(C#Cc2cccc(C(F)(F)F)c2)cc1` [compound 9], 60%.
In the case of `Cc1ccccc1S(=O)(=O)NC(=O)CC(NC(=O)c1ccc(N(C)CCC(C)C)c(N(C)CCc2ccccc2)c1)C1CCCCC1` (centres unmarked) [Compound 153-IV], under setting [1], the inhibition at 1 µM was 86%.
Still for that read-out and setting: the value for `CC(C)CCN(C)c1ccc(-c2noc(-c3cccc(C(=O)NS(=O)(=O)c4ccccc4)c3)n2)cc1NC(=O)C1CCCCC1` [compound 41] was 85%.
Still for that read-out and setting: the value for `CC(C)CCN(C)c1ccc(C(=O)NC(CC(=O)NS(=O)(=O)c2ccccc2)C2CCCCC2)cc1NC1CCC1` (centres unmarked) [compound 85] was 59%.
